Experimental findings from patent US7531554B2, “4-oxoquinoline compound and use thereof as HIV integrase inhibitor” (Japan Tobacco Inc., priority 2004, dated 2009) are described below.

This assay deals with T1, HIV integrase (Human immunodeficiency virus type 1 group M subtype B, UniProt P12497, F1332H).
T1 construct: HIV integrase full length gene (J. Virol., 67, 425-437 (1993)) in which phenylalanine at codon 185 was substituted by histidine; made in house; host or cells: Escherichia coli BL21(DE3)
The experiment in a line: Determination of enzyme (HIV integrase) inhibitory activity. The note with it: recombinant integrase protein (F185H), donor DNA/target DNA, absorbance at 450 nm. The class given is biochemical. On the procedure:
HIV integrase full length gene (J. Virol., 67, 425-437 (1993)) in which phenylalanine at codon 185 was substituted by histidine, was inserted between the restriction enzyme NdeI and XhoI sites of plasmid pET21a(+) (Novagen), whereby an integrase expression vector pET21a-IN-F185H was constructed.
Escherichia coli recombinant BL21(DE3) transformed with plasmid pET21a-IN-F185H obtained in (i) was shake cultured at 30° C. in a liquid medium containing ampicillin. When the culture reached the logarithmic growth phase, isopropyl-β-D-thiogalactopyranoside was added to promote expression of integrase gene. The culture was continued for 3 hr to promote accumulation of the integrase protein. The recombinant E. coli was collected in pellets by centrifugal separation and preserved at −80° C.
The E. coli was suspended in Lysis buffer (20 mM HEPES (pH 7.5), 5 mM DTT, 10 mM CHAPS, 10% glycerol) containing 1M sodium chloride and subjected to repeat pressurization and depressurization for rupture, and centrifugal separation at 4° C., 40,000×g, 60 min to recover a water-soluble fraction (supernatant). This was diluted 10-fold with Lysis buffer free of sodium chloride, mixed with SP-Sepharose (Pharmacia Corporation) and stirred at 4° C. for 60 min to allow adsorption of integrase protein to the resin. The resin was washed with Lysis buffer containing 100 mM sodium chloride and the integrase protein was eluted with Lysis buffer containing 1M sodium chloride.
The eluted integrase protein solution was subjected to a Superdex 75 (Pharmacia Corporation) column for gel filtration. The protein was eluted with Lysis buffer containing 1M sodium chloride.
The obtained fractions of the integrase protein were collected and preserved at −80° C.
The following DNA synthesized by Greiner was dissolved in TE buffer (10 mM Tris-hydrochloric acid (pH 8.0), 1 mM EDTA) and mixed with donor DNA, target DNA, and each complementary strand (+ and − strands) to 1 μM. The mixture was heated at 95° C. for 5 min, 80° C. for 10 min, 70° C. for 10 min, 60° C. for 10 min, 50° C. for 10 min and 40° C. for 10 min and kept at 25° C. to give a double stranded DNA, which was used for the test. Donor DNA ([…] attached to the 5′ terminal) Donor + strand: 5′-Biotin-ACCCTTTTAGTCAGTGTGGAAAATCTCTAGCA-3′ (SEQ ID NO:1) Donor − strand: 5′-ACTGCTAGAGATTTTCCACACTGACTAAAAG-3′ (SEQ ID NO:2) Target DNA (+, − strands both having digoxigenin added at 3′ terminal) Target + strand: 5′-TGACCAAGGGCTAATTCACT-Dig-3′ (SEQ ID NO:3) Target − strand: 5′-AGTGAATTAGCCCTTGGTCA-Dig-3′ (SEQ ID NO:4)
The donor DNA was diluted with TE buffer to 10 nM, of which 50 μl was added to each well of streptavidin-coated microtiter plate (Roche) and allowed to adsorb at 37° C. for 60 min. The plate was washed with phosphate buffer (Dulbecco's PBS, Sanko Junyaku Co., Ltd.) containing 0.1% Tween 20 and phosphate buffer. Then, an enzyme reaction mixture (70 μl), a test substance (10 μl) diluted with the reaction mixture and 100 μg/ml integrase protein (10 μl) were added to each well and reacted at 37° C. for 60 min.
Then, 50 nM target DNA (10 μl) was added, reacted at 37° C. for 10 min and washed with phosphate buffer containing 0.1% Tween 20 to stop the reaction.
Then, 100 mU/ml peroxidase labeled anti-digoxigenin antibody solution (Roche, 100 μl) was added, and the mixture was reacted at 37° C. for 60 min, followed by washing with phosphate buffer containing 0.1% Tween 20.
A peroxidase color solution (Bio Rad, 100 μl) was added and allowed to react at room temperature for 4 min. The color reaction was stopped by adding 1N sulfuric acid (100 μl). The absorbance at 450 nm was measured.
The HIV integrase inhibitory activity (IC50) of the compound of the present invention was calculated from the inhibition rate according to the following formula. […]

Structures can show the parent of a compound that is named as a salt.

On to `CC(C)[C@@H](CO)n1cc(C(=O)O)c(=O)c2cc(Cc3cccc(Cl)c3F)c(OCc3ccc(C(=O)O)cc3)cc21` [Example 4-57, 7-(4-carboxybenzyloxy)-6-(3-chloro-2-fluorobenzyl)-1-((1S)-1-(hydroxymethyl)-2-methylpropyl)-4-oxo-1,4-dihydroquinoline-3-carboxylic acid], for which the IC50 was found to be 3.8 nM.

On to `CC(C)[C@@H](CO)n1cc(C(=O)O)c(=O)c2cc(Cc3cccc(Cl)c3F)c(O[C@H]3CCNC3)cc21` [Example 4-46, 6-(3-chloro-2-fluorobenzyl)-1-((1S)-1-(hydroxymethyl)-2-methylpropyl)-4-oxo-7-((3S)-pyrrolidin-3-yloxy)-1,4-dihydroquinoline-3-carboxylic acid hydrochloride], for which the IC50 amounted to 6.8 nM.

Take `COc1cc2c(cc1Cc1ccc(F)c(Cl)c1F)c(=O)c(C(=O)O)cn2[C@H](CO)C(C)C` [Example 1-5, 6-(3-chloro-2,4-difluorobenzyl)-1-((1S)-1-(hydroxymethyl)-2-methylpropyl)-7-methoxy-4-oxo-1,4-dihydroquinoline-3-carboxylic acid]: the IC50 amounted to 3.3 nM.

Turning to `CC(C)[C@@H](CO)n1cc(C(=O)O)c(=O)c2cc(Cc3cccc(Cl)c3F)c(Oc3ccccc3)cc21` [Example 4-44, 6-(3-chloro-2-fluorobenzyl)-1-((1S)-1-(hydroxymethyl)-2-methylpropyl)-4-oxo-7-phenoxy-1,4-dihydroquinoline-3-carboxylic acid], the IC50 was found to be 4.9 nM.

Regarding `CSCC[C@@H](CO)n1cc(C(=O)O)c(=O)c2cc(Cc3cccc(Cl)c3F)ccc21` [Example 2-16, 6-(3-chloro-2-fluorobenzyl)-1-((1S)-1-(hydroxymethyl)-3-(methylthio)propyl)-4-oxo-1,4-dihydroquinoline-3-carboxylic acid], the IC50 was found to be 5.8 nM.

As for `CC(C)[C@@H](CO)n1cc(C(=O)O)c(=O)c2cc(Cc3cccc(Cl)c3F)c(OC3CCN(S(C)(=O)=O)CC3)cc21` [Example 4-64, 6-(3-chloro-2-fluorobenzyl)-1-((1S)-1-(hydroxymethyl)-2-methylpropyl)-7-(1-mesylpiperidin-4-yloxy)-4-oxo-1,4-dihydroquinoline-3-carboxylic acid], the IC50 stood at 6.6 nM.

Regarding `CC(C)[C@@H](CO)n1cc(C(=O)O)c(=O)c2cc(Cc3cccc(Cl)c3F)c(OCCCO)cc21` [Example 7-4, 6-(3-chloro-2-fluorobenzyl)-1-((1S)-1-(hydroxymethyl)-2-methylpropyl)-7-(3-hydroxypropoxy)-4-oxo-1,4-dihydroquinoline-3-carboxylic acid], the IC50 was found to be 3.6 nM.

On to `CC(=O)N1CCC(Oc2cc3c(cc2Cc2cccc(Cl)c2F)c(=O)c(C(=O)O)cn3[C@H](CO)C(C)C)CC1` [Example 4-45, 7-((1-acetylpiperidin-4-yl)oxy)-6-(3-chloro-2-fluorobenzyl)-1-((1S)-1-(hydroxymethyl)-2-methylpropyl)-4-oxo-1,4-dihydroquinoline-3-carboxylic acid], for which the concentration for half-maximal inhibition (IC50) was determined as 13 nM.

Consider `COc1cc2c(cc1Cc1cc(O)cc(Cl)c1F)c(=O)c(C(=O)O)cn2[C@H](CO)C(C)C` [Example 1-6, 6-(3-chloro-2-fluoro-5-hydroxybenzyl)-1-((1S)-1-(hydroxymethyl)-2-methylpropyl)-7-methoxy-4-oxo-1,4-dihydroquinoline-3-carboxylic acid], for which the IC50 amounted to 4.6 nM.

Turning to `CSC[C@@H](CO)n1cc(C(=O)O)c(=O)c2cc(Cc3cccc(Cl)c3F)ccc21` [Example 2-7, 6-(3-chloro-2-fluorobenzyl)-1-((1R)-1-(hydroxymethyl)-2-(methylthio)ethyl)-4-oxo-1,4-dihydroquinoline-3-carboxylic acid], the IC50 amounted to 8.1 nM.

Take `COc1cc2c(cc1Cc1cccc(Cl)c1F)c(=O)c(C(=O)O)cn2C(CO)C1CCNCC1` (centres unmarked) [Example 2-2, 6-(3-chloro-2-fluorobenzyl)-1-(2-hydroxy-1-(piperidin-4-yl)ethyl)-7-methoxy-4-oxo-1,4-dihydroquinoline-3-carboxylic acid hydrochloride]: the IC50 came to 12 nM.

In the case of `CC(C)[C@@H](CO)n1cc(C(=O)O)c(=O)c2cc(Cc3cccc(Cl)c3F)c(O)cc21` [Example 7-5, 6-(3-chloro-2-fluorobenzyl)-7-hydroxy-1-((1S)-1-(hydroxymethyl)-2-methylpropyl)-4-oxo-1,4-dihydroquinoline-3-carboxylic acid], the IC50 amounted to 3.2 nM.

`CC(=O)N1CCN(c2cc3c(cc2Cc2cccc(Cl)c2F)c(=O)c(C(=O)O)cn3[C@H](CO)C(C)C)CC1` [Example 4-11, 7-(4-acetylpiperazin-1-yl)-6-(3-chloro-2-fluorobenzyl)-1-((1S)-1-(hydroxymethyl)-2-methylpropyl)-4-oxo-1,4-dihydroquinoline-3-carboxylic acid]: the IC50 came to 6.8 nM.

For the compound `COc1cc2c(cc1Cc1cccc(Cl)c1F)c(=O)c(C(=O)O)cn2[C@H](CO)CCS(C)(=O)=O` [Example 2-13, 6-(3-chloro-2-fluorobenzyl)-1-((1S)-1-(hydroxymethyl)-3-mesylpropyl)-7-methoxy-4-oxo-1,4-dihydroquinoline-3-carboxylic acid], the IC50 was determined as 6.9 nM.

Take `CC(C)[C@@H](CO)n1cc(C(=O)O)c(=O)c2cc(Cc3cccc(Cl)c3F)c(OCC(=O)O)cc21` [Example 4-50, 7-(carboxymethoxy)-6-(3-chloro-2-fluorobenzyl)-1-((1S)-1-(hydroxymethyl)-2-methylpropyl)-4-oxo-1,4-dihydroquinoline-3-carboxylic acid]: the IC50 came to 5.3 nM.

Regarding `COc1cc2c(cc1Cc1cccc(Cl)c1F)c(=O)c(C(=O)O)cn2[C@H](CO)CCSC` [Example 2-12, 6-(3-chloro-2-fluorobenzyl)-1-((1S)-1-(hydroxymethyl)-3-(methylthio)propyl)-7-methoxy-4-oxo-1,4-dihydroquinoline-3-carboxylic acid], the IC50 is 5.7 nM.

In the case of `COc1cc2c(cc1C(O)c1cccc(Cl)c1F)c(=O)c(C(=O)O)cn2[C@H](CO)C(C)C` (single isomer, unassigned) [Example 7-8], the IC50 came to 39 nM.

Consider `CC(C)[C@@H](CO)n1cc(C(=O)O)c(=O)c2cc(Cc3cccc(Cl)c3F)c(O[C@@H]3CCOC3)cc21` [Example 4-48, 6-(3-chloro-2-fluorobenzyl)-1-((1S)-1-(hydroxymethyl)-2-methylpropyl)-4-oxo-7-((3R)-tetrahydrofuran-3-yloxy)-1,4-dihydroquinoline-3-carboxylic acid], for which the IC50 was determined as 5.6 nM.

With `CC(C)[C@@H](CO)n1cc(C(=O)O)c(=O)c2cc(Cc3cccc(Cl)c3F)c(OCS(=O)(=O)N(C)C)cc21` [Example 4-28, 6-(3-chloro-2-fluorobenzyl)-7-((dimethylamino)sulfonylmethoxy)-1-((1S)-1-(hydroxymethyl)-2-methylpropyl)-4-oxo-1,4-dihydroquinoline-3-carboxylic acid], the IC50 was 4.5 nM.

As to `CC(C)[C@@H](CO)n1cc(C(=O)O)c(=O)c2cc(Cc3cccc(Cl)c3F)c(Oc3cccnc3)cc21` [Example 4-20, 6-(3-chloro-2-fluorobenzyl)-1-((1S)-1-(hydroxymethyl)-2-methylpropyl)-4-oxo-7-(pyridin-3-yloxy)-1,4-dihydroquinoline-3-carboxylic acid hydrochloride], the IC50 was 9.3 nM.

The term IC50 denotes the concentration that gives 50% inhibition.
